Measured values from patent publication US7264921B2, “No synthase assay particles and method” (GE Healthcare UK Limited, priority 2001, dated 2007).
Structures can show the parent of a compound that is named as a salt.

Tests used:
iNOS [1] = target: T1, iNOS (Mus musculus, UniProt P29477); assay: iNOS SPA enzyme assay, effect of solvents; type: biochemical, murine; set-up: purchased Cayman Chemical Company 60864; details: for Time (mins) cpm, 0: 0 min; for Time (mins) cpm, 5: 5 min; for Time (mins) cpm, 10: 10 min; for Time (mins) cpm, 20: 20 min; for % change in ratio: versus water
Method: The effect of using different solvents to dissolve test inhibitor compounds was tested, using the assay conditions as described in Example 4 above. […] Appropriate ‘experimental controls’ should therefore be used in all experiments.

iNOS [2] = target: T1, iNOS; assay: iNOS enzyme assay, competition experiment I (LEADseeker beads, 14C arginine); type: biochemical, murine; set-up: purchased Cayman Chemical Company 60864; details: from dose response curve FIG. 8; 1 hour room temperature; read-out: IC50 (50% inhibition of the enzyme)
Method: The preferential capture of arginine compared to citrulline can be utilised in a signal decrease assay. The assay is performed in a 3074 Costar 384 well plate Enzyme (iNOS murine macrophage, recombinant. Cayman catalogue no. 60864, 112 units/ml) is diluted 10 times in assay buffer (1.2 mM NADPH, 3.6 mM DTT, 4.8 uM FAD, 4.8 uM FMN, 4.8 uM biopterin in 50 mM TRIS pH 7.5. Diluted enzyme (10 μl) is incubated with 1.5 μl inhibitor/agonist dissolved in 100% DMSO along with 10 μl ^14C arginine tracer (APBiotech, CFB63, 300 mCi/mMol stock solution diluted in assay buffer to 100,000-150,000 cpm in 10 μl) for 1 hour at room temperature, protected from light. 10 μl LEADseeker beads suspended in a “stop” solution (360 μM aminoguanidine, 20 mM EDTA, pH 8) to 100 mg/ml (i.e 10 μl=1 mg/well) are added and the mixture incubated at room temperature for at least 2 hours. Control reactions were carried out by replacing the inhibitor with 1.5 μl water. The results are read by counting in LEADseeker™ (binning at 2×2, Q coincidence and imaged for 5 mins).
The baseline was determined using 1.5 μl 1 mM aminoguanidine (final concentration 70 μM) and maximum response using 1.5 μl 30 mM aminoguanidine (final concentration).

iNOS [3] = target: T1, iNOS; assay: biochemical
Method: Reaction conditions and data measurement were as described in Example 3 above, using 10 μl of iNOS (Cayman Chemical Company, Catalogue Number 60864) enzyme equivalent to 0.038 units/well.
The assay conditions were as described in Example 4 above employing a range of inhibitor concentrations.

Structure (SMILES)	% change in ratio (iNOS [1]; 1% solvent)	% change in ratio (iNOS [1]; 5% solvent)	IC50 (iNOS [2])	IC50 (iNOS [3])	Ratio Time 0/20 mins (iNOS [1]; 1% solvent)	Time (mins) cpm, 0 (iNOS [1]; 1% solvent)	Time (mins) cpm, 5 (iNOS [1]; 1% solvent)	Time (mins) cpm, 10 (iNOS [1]; 1% solvent)	Time (mins) cpm, 20 (iNOS [1]; 1% solvent)	Ratio Time 0/20 mins (iNOS [1]; 5% solvent)	Time (mins) cpm, 0 (iNOS [1]; 5% solvent)	Time (mins) cpm, 5 (iNOS [1]; 5% solvent)	Time (mins) cpm, 10 (iNOS [1]; 5% solvent)	Time (mins) cpm, 20 (iNOS [1]; 5% solvent)	Ratio Time 0/20 mins (iNOS [1]; 10% solvent)	Time (mins) cpm, 0 (iNOS [1]; 10% solvent)	Time (mins) cpm, 5 (iNOS [1]; 10% solvent)	Time (mins) cpm, 10 (iNOS [1]; 10% solvent)	Time (mins) cpm, 20 (iNOS [1]; 10% solvent)	% change in ratio (iNOS [1]; 10% solvent)
CC(C)=O [acetone]	8%	33%			6.54	12884 cpm	8509 cpm	5169 cpm	1971 cpm	4.78	12431 cpm	8409 cpm	6708 cpm	2601 cpm	3.19	10201 cpm	6255 cpm	6464 cpm	3193 cpm	55%
C[S+](C)[O-] [DMSO]	10%	28%			6.39	10324 cpm	7128 cpm	4330 cpm	1615 cpm	5.12	8530 cpm	4166 cpm	4453 cpm	1665 cpm	3.10	6630 cpm	3884 cpm	3666 cpm	2138 cpm	56%
CO [methanol]					7.56	14914 cpm	8639 cpm	4989 cpm	1973 cpm	7.13	15317 cpm	7939 cpm	5466 cpm	2147 cpm	6.32	12488 cpm	6631 cpm	4698 cpm	1975 cpm	10%

The next lines start with results.

% change in ratio (iNOS [1]; 1% solvent)	% change in ratio (iNOS [1]; 5% solvent)	IC50 (iNOS [2])	IC50 (iNOS [3])	Structure (SMILES)	Ratio Time 0/20 mins (iNOS [1]; 1% solvent)	Time (mins) cpm, 0 (iNOS [1]; 1% solvent)	Time (mins) cpm, 5 (iNOS [1]; 1% solvent)	Time (mins) cpm, 10 (iNOS [1]; 1% solvent)	Time (mins) cpm, 20 (iNOS [1]; 1% solvent)	Ratio Time 0/20 mins (iNOS [1]; 5% solvent)	Time (mins) cpm, 0 (iNOS [1]; 5% solvent)	Time (mins) cpm, 5 (iNOS [1]; 5% solvent)	Time (mins) cpm, 10 (iNOS [1]; 5% solvent)	Time (mins) cpm, 20 (iNOS [1]; 5% solvent)	Ratio Time 0/20 mins (iNOS [1]; 10% solvent)	Time (mins) cpm, 0 (iNOS [1]; 10% solvent)	Time (mins) cpm, 5 (iNOS [1]; 10% solvent)	Time (mins) cpm, 10 (iNOS [1]; 10% solvent)	Time (mins) cpm, 20 (iNOS [1]; 10% solvent)	% change in ratio (iNOS [1]; 10% solvent)
		~500 µM		N=C(N)NN [aminoguanidine]																
8%	41%			CCO [ethanol]	6.57	13409 cpm	9004 cpm	5580 cpm	2040 cpm	4.19	13248 cpm	7465 cpm	6596 cpm	3161 cpm	3.23	12008 cpm	6316 cpm	5987 cpm	3715 cpm	54%
			0.032 µM	CCSC(=N)N [SEITU, 2-ethyl-2-thiopseudourea hydrobromide]																
